These results are taken from ChEMBL document CHEMBL1138378, “Halogenation of 4-hydroxy-3-methoxybenzyl thiourea TRPV1 agonists showed enhanced antagonism to capsaicin” (Bioorg Med Chem Lett, 2007).

For assay [1], the target named is T1, Transient receptor potential cation channel subfamily V member 1 (Rattus norvegicus, UniProt O35433). The assay is described as follows: Displacement of [3H]RTX from rat TRPV1 expressed in CHO cells. It counts as cell-based.
The target of assay [2] is Transient receptor potential cation channel subfamily V member 1 (Rattus norvegicus) (UniProt O35433). The assay is described as follows: (§1) Antagonist activity at rat TRPV1 expressed in CHO cells assessed as inhibition of calcium uptake. It counts as functional, cell-based. Further details: concentration or dose not given beside the values. The conditions noted are these: concentration not given here.
Transient receptor potential cation channel subfamily V member 1 (Rattus norvegicus), sequence (O35433 whole entry): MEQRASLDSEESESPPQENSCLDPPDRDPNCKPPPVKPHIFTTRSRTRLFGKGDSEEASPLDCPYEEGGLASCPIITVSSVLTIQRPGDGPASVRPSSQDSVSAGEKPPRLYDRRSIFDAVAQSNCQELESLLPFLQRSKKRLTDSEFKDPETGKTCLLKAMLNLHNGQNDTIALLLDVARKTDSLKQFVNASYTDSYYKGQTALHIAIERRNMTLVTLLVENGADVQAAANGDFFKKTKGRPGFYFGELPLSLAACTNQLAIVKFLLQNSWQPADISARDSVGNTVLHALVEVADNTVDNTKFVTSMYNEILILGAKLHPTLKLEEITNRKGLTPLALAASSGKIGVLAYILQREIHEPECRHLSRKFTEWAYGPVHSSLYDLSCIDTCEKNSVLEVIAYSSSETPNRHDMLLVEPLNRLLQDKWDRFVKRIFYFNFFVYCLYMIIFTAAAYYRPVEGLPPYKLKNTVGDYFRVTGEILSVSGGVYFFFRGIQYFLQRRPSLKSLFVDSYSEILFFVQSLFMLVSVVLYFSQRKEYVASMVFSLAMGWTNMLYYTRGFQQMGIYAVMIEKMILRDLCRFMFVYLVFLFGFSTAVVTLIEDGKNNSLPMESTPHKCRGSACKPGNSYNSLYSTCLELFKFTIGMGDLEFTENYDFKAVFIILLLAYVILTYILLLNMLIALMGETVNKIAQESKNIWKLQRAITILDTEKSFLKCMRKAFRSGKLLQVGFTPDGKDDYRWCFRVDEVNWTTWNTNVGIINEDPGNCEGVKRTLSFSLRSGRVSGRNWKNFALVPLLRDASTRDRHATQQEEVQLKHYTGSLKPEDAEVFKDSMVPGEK

Assay [3] shares this target. The assay is described as follows: Agonist activity at rat TRPV1 expressed in CHO cells assessed as maximal calcium uptake relative to capsaicin. Type of assay: functional, cell-based.
Assay [4] has as its target T1, Transient receptor potential cation channel subfamily V member 1. The assay is described as §1. It counts as functional, cell-based.
The target is the same in assay [5]. The assay is described as follows: Agonist activity at rat TRPV1 expressed in CHO cells assessed as maximal calcium uptake. It counts as functional, cell-based.

T1 sequence (O35433 whole entry): as above

`COc1cc(CNC(=S)NCC(COC(=O)C(C)(C)C)Cc2ccc(C)c(C)c2)cc(Br)c1O` (configuration not stated) had an inhibition constant Ki in assay [1] of 33.1 nM. Moreover, the inhibition in assay [2] stood at 70%. Besides, the Activity in assay [3] amounted to 29%.
For `COc1cc(CNC(=S)NCc2ccc(C(C)(C)C)cc2)cc(Cl)c1O`, in that order: 76 nM, 92% and 5%.
The like results for `COc1cc(CNC(=S)NC(CCc2ccc(C(C)(C)C)cc2)COC(=O)C(C)(C)C)cc(Cl)c1O` (configuration not stated) were, in that order, 122 nM, 47% and 44%.
Turning to `COc1cc(CNC(=S)NCc2ccc(C(C)(C)C)cc2)cc(I)c1O`, the inhibition constant Ki was determined as 342 nM in assay [1] and 176 nM in assay [4].
The like results for `CCCCCCCCC(=O)NCc1cc(OC)c(O)cc1I` were, in that order, 1320 nM and 127 nM.
In the case of `COc1cc(CNC(=S)NC(CCc2ccc(C)c(C)c2)COC(=O)C(C)(C)C)ccc1O` (configuration not stated), the EC50 in assay [5] came to 14.7 nM. In addition, the Ki in assay [1] turned out to be 56 nM.
For `COc1cc(CNC(=S)NCC(COC(=O)C(C)(C)C)Cc2ccc(C(C)(C)C)cc2)cc(Br)c1O` (configuration not stated), the affinity in assay [1], expressed as Ki, was 18.8 nM. In assay [2], the inhibition worked out at 85%. Further, in assay [3], the Activity came to 9%.
Regarding `COc1cc(CNC(=S)NC(COC(=O)C(C)(C)C)Cc2ccc(C(C)(C)C)cc2)c(I)cc1O` (configuration not stated), the Ki in assay [1] came out at 96 nM; in assay [4] it was 310 nM.
In turn, `COc1cc(CNC(=S)NC(CCc2ccc(C)c(C)c2)COC(=O)C(C)(C)C)c(Cl)cc1O` (configuration not stated) yielded a Ki in assay [1] of 103 nM. Also, the inhibition in assay [2] is 45%. For the same compound, in assay [3], the Activity amounted to 60%.
The compound `COc1cc(CNC(=S)NCC(COC(=O)C(C)(C)C)Cc2ccc(C)c(C)c2)cc(Cl)c1O` (configuration not stated) came in with a Ki in assay [1] of 30.9 nM. Besides, the Activity in assay [3] turned out to be 93%.
In assay [1], `COc1cc(CNC(=S)NCC(COC(=O)C(C)(C)C)Cc2ccc(C)c(C)c2)c(Br)cc1O` (configuration not stated) came in with an inhibition constant (Ki) of 19.9 nM. Also, in assay [2], the inhibition turned out to be 91%. The Activity in assay [3] came out at 13%.
In the case of `COc1cc(CNC(=S)NCC(COC(=O)C(C)(C)C)Cc2ccc(C(C)(C)C)cc2)c(Br)cc1O` (configuration not stated), the Ki in assay [1] worked out at 12.8 nM; in assay [4] it was 55 nM.
The like results for `COc1cc(CNC(=S)NC(CCc2ccc(C(C)(C)C)cc2)COC(=O)C(C)(C)C)c(Cl)cc1O` (configuration not stated) were, in that order, 79 nM and 72.2 nM.
Turning to `COc1cc(CNC(=S)NCC(COC(=O)C(C)(C)C)Cc2ccc(C(C)(C)C)cc2)cc(Cl)c1O` (configuration not stated), in assay [1], the affinity, expressed as Ki, was 21.3 nM. In addition, the inhibition in assay [2] was determined as 37%. Besides, in assay [3], the Activity is 49%.
The like results for `COc1cc(CNC(=S)NC(CCc2ccc(C)c(C)c2)COC(=O)C(C)(C)C)c(Br)cc1O` (configuration not stated) were, in that order, 109 nM, 75% and 13%.
The like results for `COc1cc(CNC(=S)NC(CCc2ccc(C)c(C)c2)COC(=O)C(C)(C)C)cc(Cl)c1O` (configuration not stated) were, in that order, 86 nM, 16% and 88%.
`COc1cc(CNC(=S)NC(CCc2ccc(C)c(C)c2)COC(=O)C(C)(C)C)c(I)cc1O` (configuration not stated): the Ki worked out at 140 nM in assay [1] and 176 nM in assay [4].
Take `COc1cc(CNC(=S)NC(COC(=O)C(C)(C)C)Cc2ccc(C(C)(C)C)cc2)cc(Br)c1O` (configuration not stated): in assay [1], the inhibition constant Ki worked out at 38.2 nM. Besides, in assay [2], the inhibition amounted to 29%. For the same compound, the Activity in assay [3] is 57%.
On to `COc1cc(CNC(=S)NCc2ccc(C(C)(C)C)cc2)cc(Br)c1O`, for which the Ki in assay [1] came to 51.6 nM; in assay [4] it was 49 nM.
On to `COc1cc(CNC(=S)NC(CCc2ccc(C(C)(C)C)cc2)COC(=O)C(C)(C)C)c(Br)cc1O` (configuration not stated), for which the Ki turned out to be 75 nM in assay [1] and 76.1 nM in assay [4].
As for `COc1cc(CNC(=S)NC(CCc2ccc(C(C)(C)C)cc2)COC(=O)C(C)(C)C)c(I)cc1O` (configuration not stated), the values for the inhibition constant (Ki) in assay [1] and in assay [4] were 79 nM and 69 nM, respectively.
For `COc1cc(CNC(=S)NCC(COC(=O)C(C)(C)C)Cc2ccc(C(C)(C)C)cc2)c(I)cc1O` (configuration not stated), in that order: 13.3 nM and 71 nM.
For `COc1cc(CNC(=S)NCC(COC(=O)C(C)(C)C)Cc2ccc(C)c(C)c2)cc(I)c1O` (configuration not stated), in that order: 232 nM and 121 nM.
The like results for `COc1cc(CNC(=S)NC(COC(=O)C(C)(C)C)Cc2ccc(C(C)(C)C)cc2)cc(I)c1O` (configuration not stated) were, in that order, 39.4 nM and 178 nM.
As to `COc1cc(CNC(=S)NCc2ccc(C(C)(C)C)cc2)c(I)cc1O`, the Ki was 130 nM in assay [1] and 156 nM in assay [4].
Turning to `COc1cc(CNC(=S)NCc2ccc(C(C)(C)C)cc2)c(Cl)cc1O`, the Ki in assay [1] was 36.9 nM. Besides, the inhibition in assay [2] was 81%. The Activity in assay [3] amounted to 33%.
As for `COc1cc(CNC(=S)NCC(COC(=O)C(C)(C)C)Cc2ccc(C(C)(C)C)cc2)c(Cl)cc1O` (configuration not stated), the Ki in assay [1] is 12.2 nM. Also, the inhibition in assay [2] is 71%. In addition, the Activity in assay [3] is 24%.
Consider `COc1cc(CNC(=S)NC(CCc2ccc(C)c(C)c2)COC(=O)C(C)(C)C)cc(I)c1O` (configuration not stated), for which the inhibition constant (Ki) came to 127 nM in assay [1] and 115 nM in assay [4].
For `COc1cc(CNC(=S)NC(COC(=O)C(C)(C)C)Cc2ccc(C(C)(C)C)cc2)c(Cl)cc1O` (configuration not stated), the Ki in assay [1] was found to be 41.5 nM. In addition, the inhibition in assay [2] came out at 11%. Moreover, the Activity in assay [3] came to 94%.
For `COc1cc(CNC(=S)NC(COC(=O)C(C)(C)C)Cc2ccc(C(C)(C)C)cc2)c(Br)cc1O` (configuration not stated), in that order: 74.9 nM, 51% and 41%.
With `COc1cc(CNC(=S)NCC(COC(=O)C(C)(C)C)Cc2ccc(C(C)(C)C)cc2)cc(I)c1O` (configuration not stated), the Ki worked out at 45 nM in assay [1] and 103 nM in assay [4].
As for `COc1cc(CNC(=S)NCc2ccc(C(C)(C)C)cc2)ccc1O`, in assay [5], the EC50 turned out to be 2.5 nM. The affinity in assay [1] corresponds to a Ki of 58.6 nM.
For the compound `COc1cc(CNC(=S)NCC(COC(=O)C(C)(C)C)Cc2ccc(C)c(C)c2)c(Cl)cc1O` (configuration not stated), the Ki in assay [1] worked out at 24.2 nM. Moreover, the inhibition in assay [2] is 41%. Further, in assay [3], the Activity amounted to 63%.
The compound `COc1cc(CNC(=S)NC(CCc2ccc(C)c(C)c2)COC(=O)C(C)(C)C)cc(Br)c1O` (configuration not stated) had an inhibition constant Ki in assay [1] of 102 nM. Also, the inhibition in assay [2] came to 59%. Moreover, in assay [3], the Activity worked out at 50%.
For `COc1cc(CNC(=S)NC(CCc2ccc(C(C)(C)C)cc2)COC(=O)C(C)(C)C)cc(Br)c1O` (configuration not stated), in that order: 143 nM, 73% and 19%.
Consider `COc1cc(CNC(=S)NCC(COC(=O)C(C)(C)C)Cc2ccc(C)c(C)c2)c(I)cc1O` (configuration not stated), for which the Ki worked out at 18.9 nM in assay [1] and 23.1 nM in assay [4].
Regarding `COc1cc(CNC(=S)NC(COC(=O)C(C)(C)C)Cc2ccc(C(C)(C)C)cc2)cc(Cl)c1O` (configuration not stated), the 50% effective concentration (EC50) in assay [5] was 60 nM. For the same compound, in assay [1], the Ki was determined as 28.8 nM.
The like results for `COc1cc(CNC(=S)NC(CCc2ccc(C(C)(C)C)cc2)COC(=O)C(C)(C)C)ccc1O` (configuration not stated) were, in that order, 21.5 nM and 36.5 nM.
For the compound `COc1cc(CNC(=S)NCc2ccc(C(C)(C)C)cc2)c(Br)cc1O`, the inhibitory constant (Ki) in assay [1] was 42.1 nM; in assay [4], 30.3 nM.
For `COc1cc(CNC(=S)NC(CCc2ccc(C(C)(C)C)cc2)COC(=O)C(C)(C)C)cc(I)c1O` (configuration not stated), in that order: 214 nM and 525 nM.
